Experimental findings from patent publication US20100249145A1, “Inhibitors of VEGF Receptor and HGF Receptor Signaling” (Methylgene, Inc., priority 2005, published 2010) are described below.

A value given as a limit tells only on which side of the number the result lay.

The target of the first test is T1, recombinant human c-Met/HGF receptor (Homo sapiens, UniProt P08581).
T1 construct: His tag (histidine tag from pBlueBacHis2A); made in house; host or cells: Hi-5 cells (Trichoplusia ni), recombinant baculovirus
T1 sequence (P08581 1078-1337): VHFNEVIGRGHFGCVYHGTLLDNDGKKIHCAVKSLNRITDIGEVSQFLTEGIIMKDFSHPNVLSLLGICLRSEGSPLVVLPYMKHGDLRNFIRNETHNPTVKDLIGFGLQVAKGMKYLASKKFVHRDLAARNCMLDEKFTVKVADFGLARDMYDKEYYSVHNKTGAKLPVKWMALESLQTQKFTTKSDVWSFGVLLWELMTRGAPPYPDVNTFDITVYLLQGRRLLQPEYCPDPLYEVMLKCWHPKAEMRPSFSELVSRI
The test is described as follows: In vitro receptor tyrosine kinase assay (DELFIA), c-Met/HGF receptor. Format: biochemical. The following applies: Table 31; ATP 10 uM, enzyme 25 nM; read-out: CMet ic50.
In general, IC50 refers to the concentration that inhibits the measured activity by half. For `CCn1ccnc1-c1cc2nccc(Oc3ccc(NC(=S)NC(=O)Cc4ccc(F)cc4)cc3F)c2s1`, the IC50 was less than 50 nM.

Take `Cn1ccnc1-c1cc2nccc(Oc3ccc(NC(=S)NC(=O)Cc4ccc(F)cc4)cc3F)c2s1`: the IC50 was less than 50 nM.

Consider `Cc1ccccc1CC(=O)NC(=S)Nc1ccc(Oc2ccnc3cc(-c4nccn4C)sc23)c(F)c1`, for which the IC50 was less than 50 nM.

As to `Cc1ccccc1CC(=O)NC(=S)Nc1ccc(Oc2ccnc3cc(C4=CCN(C)CC4)sc23)c(F)c1`, the IC50 is less than 50 nM.

Turning to `O=C(Cc1ccccc1)NC(=S)Nc1ccc(Oc2ccnc3cc(-c4cccc[n+]4[O-])sc23)c(F)c1`, the IC50 is less than 50 nM.

As to `CN1CCN(Cc2ccc(-c3cc4nccc(Oc5ccc(NC(=S)NC(=O)Cc6ccc(F)cc6)cc5F)c4s3)cc2)CC1`, the IC50 is less than 50 nM.

As for `C#Cc1ccccc1CC(=O)NC(=S)Nc1ccc(Oc2ccnc3cc(-c4nccn4CC)sc23)c(F)c1`, the IC50 is less than 50 nM.

Consider `C#Cc1ccc(CC(=O)NC(=S)Nc2ccc(Oc3ccnc4cc(-c5nccn5C)sc34)c(F)c2)cc1`, for which the IC50 is 50 to 250 nM.

Turning to `C#Cc1ccccc1CC(=O)NC(=S)Nc1ccc(Oc2ccnc3cc(-c4nccn4C)sc23)c(F)c1`, the IC50 was less than 50 nM.

Turning to `C#Cc1ccccc1CC(=O)NC(=S)Nc1ccc(Oc2ccnc3cc(-c4cn(CCN5CCCC5)cn4)sc23)c(F)c1`, the IC50 is less than 50 nM.

As for `C#Cc1ccccc1CC(=O)NC(=S)Nc1ccc(Oc2ccnc3cc(C4=CCN(C)CC4)sc23)c(F)c1`, the IC50 is less than 50 nM.

Consider `C#Cc1ccc(CC(=O)NC(=S)Nc2ccc(Oc3ccnc4cc(-c5cn(CC)cn5)sc34)c(F)c2)cc1`, for which the IC50 fell in the range of 50 to 250 nM.

As for `C#Cc1ccc(CC(=O)NC(=S)Nc2ccc(Oc3ccnc4cc(-c5ccc(CN(C)CCO)cc5)sc34)c(F)c2)cc1`, the IC50 is 50 to 250 nM.

Regarding `CCn1cnc(-c2cc3nccc(Oc4ccc(NC(=S)NC(=O)Cc5cccc(F)c5)cc4F)c3s2)c1`, the IC50 is less than 50 nM.

As to `Cn1cnc(-c2cc3nccc(Oc4ccc(NC(=S)NC(=O)Cc5cccc(F)c5)cc4F)c3s2)c1`, the IC50 was less than 50 nM.

Consider `Cn1cnc(-c2cc3nccc(Oc4ccc(NC(=S)NC(=O)Cc5ccc(F)cc5F)cc4F)c3s2)c1` [drawing 434], for which the IC50 is less than 50 nM.

On to `Cn1cnc(-c2cc3nccc(Oc4ccc(NC(=S)NC(=O)Cc5ccc(F)cc5)cc4F)c3s2)c1` [drawing 440], for which the IC50 is less than 50 nM.

In the case of `CCn1cnc(-c2cc3nccc(Oc4ccc(NC(=S)NC(=O)Cc5ccccc5C)cc4F)c3s2)c1` [drawing 441], the IC50 is less than 50 nM.

A further test deals with T2, VEGF receptor KDR (Homo sapiens, UniProt P35968).
T2 construct: made in house; host or cells: Sf9 cells (Spodoptera frugiperda), recombinant baculovirus
T2 sequence (P35968 806-1356): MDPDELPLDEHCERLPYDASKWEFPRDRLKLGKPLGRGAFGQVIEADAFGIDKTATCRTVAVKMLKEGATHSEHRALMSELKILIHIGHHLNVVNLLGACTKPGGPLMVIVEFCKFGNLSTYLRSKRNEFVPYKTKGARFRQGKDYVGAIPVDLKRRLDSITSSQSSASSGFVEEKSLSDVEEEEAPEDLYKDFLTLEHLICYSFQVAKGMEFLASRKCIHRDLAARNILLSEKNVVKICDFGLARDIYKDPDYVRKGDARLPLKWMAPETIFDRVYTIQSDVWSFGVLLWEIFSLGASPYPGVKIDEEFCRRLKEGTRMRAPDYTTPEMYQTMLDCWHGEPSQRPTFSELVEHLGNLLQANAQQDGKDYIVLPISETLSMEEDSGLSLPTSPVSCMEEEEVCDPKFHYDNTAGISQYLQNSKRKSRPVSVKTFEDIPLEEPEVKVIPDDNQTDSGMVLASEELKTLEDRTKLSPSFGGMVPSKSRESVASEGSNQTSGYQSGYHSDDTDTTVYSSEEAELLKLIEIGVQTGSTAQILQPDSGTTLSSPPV
The test is described as follows: In vitro receptor tyrosine kinase assay (DELFIA), VEGF receptor KDR. The following applies: Table 31; ATP 0.6 uM, enzyme 5 nM; read-out: VEGFR IC50. Format: biochemical.
In the case of `CCn1ccnc1-c1cc2nccc(Oc3ccc(NC(=S)NC(=O)Cc4ccc(F)cc4)cc3F)c2s1`, the IC50 was less than 50 nM.

Turning to `Cn1ccnc1-c1cc2nccc(Oc3ccc(NC(=S)NC(=O)Cc4ccc(F)cc4)cc3F)c2s1`, the IC50 is less than 50 nM.

In the case of `Cc1ccccc1CC(=O)NC(=S)Nc1ccc(Oc2ccnc3cc(-c4nccn4C)sc23)c(F)c1`, the IC50 was less than 50 nM.

Take `Cc1ccccc1CC(=O)NC(=S)Nc1ccc(Oc2ccnc3cc(C4=CCN(C)CC4)sc23)c(F)c1`: the concentration for half-maximal inhibition (IC50) was in the range of 250 to 500 nM.

For `O=C(Cc1ccccc1)NC(=S)Nc1ccc(Oc2ccnc3cc(-c4cccc[n+]4[O-])sc23)c(F)c1`, the IC50 lay in the range of 50 to 250 nM.

As for `CN1CCN(Cc2ccc(-c3cc4nccc(Oc5ccc(NC(=S)NC(=O)Cc6ccc(F)cc6)cc5F)c4s3)cc2)CC1`, the IC50 is less than 50 nM.

With `C#Cc1ccccc1CC(=O)NC(=S)Nc1ccc(Oc2ccnc3cc(-c4nccn4CC)sc23)c(F)c1`, the IC50 was less than 50 nM.

`C#Cc1ccc(CC(=O)NC(=S)Nc2ccc(Oc3ccnc4cc(-c5nccn5C)sc34)c(F)c2)cc1`: the IC50 is 50 to 250 nM.

Regarding `C#Cc1ccccc1CC(=O)NC(=S)Nc1ccc(Oc2ccnc3cc(-c4nccn4C)sc23)c(F)c1`, the IC50 was less than 50 nM.

With `C#Cc1ccccc1CC(=O)NC(=S)Nc1ccc(Oc2ccnc3cc(-c4cn(CCN5CCCC5)cn4)sc23)c(F)c1`, the IC50 was less than 50 nM.

Take `C#Cc1ccccc1CC(=O)NC(=S)Nc1ccc(Oc2ccnc3cc(C4=CCN(C)CC4)sc23)c(F)c1`: the IC50 lay in the range of 50 to 250 nM.

Take `C#Cc1ccc(CC(=O)NC(=S)Nc2ccc(Oc3ccnc4cc(-c5cn(CC)cn5)sc34)c(F)c2)cc1`: the half-maximal inhibitory concentration (IC50) is less than 50 nM.

For `C#Cc1ccc(CC(=O)NC(=S)Nc2ccc(Oc3ccnc4cc(-c5ccc(CN(C)CCO)cc5)sc34)c(F)c2)cc1`, the IC50 was less than 50 nM.

Turning to `CCn1cnc(-c2cc3nccc(Oc4ccc(NC(=S)NC(=O)Cc5cccc(F)c5)cc4F)c3s2)c1`, the IC50 is less than 50 nM.

In the case of `Cn1cnc(-c2cc3nccc(Oc4ccc(NC(=S)NC(=O)Cc5cccc(F)c5)cc4F)c3s2)c1`, the IC50 fell in the range of 50 to 250 nM.

Take `Cn1cnc(-c2cc3nccc(Oc4ccc(NC(=S)NC(=O)Cc5ccc(F)cc5F)cc4F)c3s2)c1` [drawing 434]: the IC50 is less than 50 nM.

Regarding `Cn1cnc(-c2cc3nccc(Oc4ccc(NC(=S)NC(=O)Cc5ccc(F)cc5)cc4F)c3s2)c1` [drawing 440], the IC50 is less than 50 nM.

On to `CCn1cnc(-c2cc3nccc(Oc4ccc(NC(=S)NC(=O)Cc5ccccc5C)cc4F)c3s2)c1` [drawing 441], for which the IC50 was less than 50 nM.

The test system of a further test is A549. The test is described as follows: A549 wound healing inhibition (HGF dependent migration). Format: cell-based. The following applies: Homo sapiens, Table 31, read-out: A549 wound healing inbib IC50. An excerpt:
(§1) HGF has well known activity in terms of inducing scattering and migration (wound healing) (Wells et al., Cell Motil Cytoskeleton. 2005 November 62(3):180-94; Miura et al., Urology 2001 December 58(6):1064-9; Nishimura et al., Int J. Urol. 1998 May 5(3):276-81; Wang et al., Mol Cancer Ther. 2003 November; 2(11):1085-92; and Christensen et al., Cancer Res. 2003 Nov. 1; 63(21):7345-55).
For `CCn1ccnc1-c1cc2nccc(Oc3ccc(NC(=S)NC(=O)Cc4ccc(F)cc4)cc3F)c2s1`, the IC50 is less than 1000 nM.

For `Cn1ccnc1-c1cc2nccc(Oc3ccc(NC(=S)NC(=O)Cc4ccc(F)cc4)cc3F)c2s1`, the IC50 is less than 1000 nM.

For the molecule `Cc1ccccc1CC(=O)NC(=S)Nc1ccc(Oc2ccnc3cc(-c4nccn4C)sc23)c(F)c1`, the IC50 is less than 1000 nM.

Consider `Cc1ccccc1CC(=O)NC(=S)Nc1ccc(Oc2ccnc3cc(C4=CCN(C)CC4)sc23)c(F)c1`, for which the IC50 is less than 1000 nM.

For `O=C(Cc1ccccc1)NC(=S)Nc1ccc(Oc2ccnc3cc(-c4cccc[n+]4[O-])sc23)c(F)c1`, the IC50 was less than 1000 nM.

Regarding `CN1CCN(Cc2ccc(-c3cc4nccc(Oc5ccc(NC(=S)NC(=O)Cc6ccc(F)cc6)cc5F)c4s3)cc2)CC1`, the IC50 is less than 1000 nM.

In the case of `C#Cc1ccccc1CC(=O)NC(=S)Nc1ccc(Oc2ccnc3cc(-c4nccn4CC)sc23)c(F)c1`, the IC50 is less than 1000 nM.

Take `C#Cc1ccc(CC(=O)NC(=S)Nc2ccc(Oc3ccnc4cc(-c5nccn5C)sc34)c(F)c2)cc1`: the IC50 fell in the range of 1000 to 5000 nM.

As to `C#Cc1ccccc1CC(=O)NC(=S)Nc1ccc(Oc2ccnc3cc(-c4nccn4C)sc23)c(F)c1`, the IC50 was less than 1000 nM.

For the molecule `C#Cc1ccccc1CC(=O)NC(=S)Nc1ccc(Oc2ccnc3cc(-c4cn(CCN5CCCC5)cn4)sc23)c(F)c1`, the IC50 is less than 1000 nM.

For the molecule `C#Cc1ccccc1CC(=O)NC(=S)Nc1ccc(Oc2ccnc3cc(C4=CCN(C)CC4)sc23)c(F)c1`, the IC50 is less than 1000 nM.

`C#Cc1ccc(CC(=O)NC(=S)Nc2ccc(Oc3ccnc4cc(-c5cn(CC)cn5)sc34)c(F)c2)cc1`: the IC50 was 1000 to 5000 nM.

Take `C#Cc1ccc(CC(=O)NC(=S)Nc2ccc(Oc3ccnc4cc(-c5ccc(CN(C)CCO)cc5)sc34)c(F)c2)cc1`: the IC50 is greater than 10000 nM.

On to `CCn1cnc(-c2cc3nccc(Oc4ccc(NC(=S)NC(=O)Cc5cccc(F)c5)cc4F)c3s2)c1`, for which the IC50 was less than 1000 nM.

In the case of `Cn1cnc(-c2cc3nccc(Oc4ccc(NC(=S)NC(=O)Cc5cccc(F)c5)cc4F)c3s2)c1`, the IC50 was less than 1000 nM.

With `Cn1cnc(-c2cc3nccc(Oc4ccc(NC(=S)NC(=O)Cc5ccc(F)cc5F)cc4F)c3s2)c1` [drawing 434], the IC50 was less than 1000 nM.

On to `Cn1cnc(-c2cc3nccc(Oc4ccc(NC(=S)NC(=O)Cc5ccc(F)cc5)cc4F)c3s2)c1` [drawing 440], for which the IC50 is less than 1000 nM.

As for `CCn1cnc(-c2cc3nccc(Oc4ccc(NC(=S)NC(=O)Cc5ccccc5C)cc4F)c3s2)c1` [drawing 441], the IC50 was less than 1000 nM.

Another test deals with DU145. The test is described as follows: DU145 scattering inhibition (HGF dependent scattering). Format: cell-based. The conditions noted are these: Homo sapiens, DU-145, Table 31, read-out: DU145 scattering inhib IC50.
Source text: as §1
Turning to `CCn1ccnc1-c1cc2nccc(Oc3ccc(NC(=S)NC(=O)Cc4ccc(F)cc4)cc3F)c2s1`, the IC50 is less than 1000 nM.

On to `Cn1ccnc1-c1cc2nccc(Oc3ccc(NC(=S)NC(=O)Cc4ccc(F)cc4)cc3F)c2s1`, for which the 50% inhibitory concentration (IC50) is less than 1000 nM.

For the molecule `Cc1ccccc1CC(=O)NC(=S)Nc1ccc(Oc2ccnc3cc(-c4nccn4C)sc23)c(F)c1`, the IC50 is less than 1000 nM.

`Cc1ccccc1CC(=O)NC(=S)Nc1ccc(Oc2ccnc3cc(C4=CCN(C)CC4)sc23)c(F)c1`: the IC50 was less than 1000 nM.

For `O=C(Cc1ccccc1)NC(=S)Nc1ccc(Oc2ccnc3cc(-c4cccc[n+]4[O-])sc23)c(F)c1`, the IC50 is less than 1000 nM.

For the molecule `CN1CCN(Cc2ccc(-c3cc4nccc(Oc5ccc(NC(=S)NC(=O)Cc6ccc(F)cc6)cc5F)c4s3)cc2)CC1`, the IC50 was less than 1000 nM.

For `C#Cc1ccccc1CC(=O)NC(=S)Nc1ccc(Oc2ccnc3cc(-c4nccn4CC)sc23)c(F)c1`, the IC50 was less than 1000 nM.

For `C#Cc1ccc(CC(=O)NC(=S)Nc2ccc(Oc3ccnc4cc(-c5nccn5C)sc34)c(F)c2)cc1`, the IC50 was greater than 10000 nM.

For the molecule `C#Cc1ccccc1CC(=O)NC(=S)Nc1ccc(Oc2ccnc3cc(-c4nccn4C)sc23)c(F)c1`, the concentration for half-maximal inhibition (IC50) was less than 1000 nM.

Consider `C#Cc1ccccc1CC(=O)NC(=S)Nc1ccc(Oc2ccnc3cc(-c4cn(CCN5CCCC5)cn4)sc23)c(F)c1`, for which the IC50 is less than 1000 nM.

On to `C#Cc1ccccc1CC(=O)NC(=S)Nc1ccc(Oc2ccnc3cc(C4=CCN(C)CC4)sc23)c(F)c1`, for which the IC50 is less than 1000 nM.

As for `C#Cc1ccc(CC(=O)NC(=S)Nc2ccc(Oc3ccnc4cc(-c5cn(CC)cn5)sc34)c(F)c2)cc1`, the IC50 was in the range of 1000 to 5000 nM.

For `C#Cc1ccc(CC(=O)NC(=S)Nc2ccc(Oc3ccnc4cc(-c5ccc(CN(C)CCO)cc5)sc34)c(F)c2)cc1`, the IC50 was greater than 10000 nM.

As to `CCn1cnc(-c2cc3nccc(Oc4ccc(NC(=S)NC(=O)Cc5cccc(F)c5)cc4F)c3s2)c1`, the IC50 is less than 1000 nM.

Turning to `Cn1cnc(-c2cc3nccc(Oc4ccc(NC(=S)NC(=O)Cc5cccc(F)c5)cc4F)c3s2)c1`, the IC50 was less than 1000 nM.

For `Cn1cnc(-c2cc3nccc(Oc4ccc(NC(=S)NC(=O)Cc5ccc(F)cc5F)cc4F)c3s2)c1` [drawing 434], the IC50 is less than 1000 nM.

As to `Cn1cnc(-c2cc3nccc(Oc4ccc(NC(=S)NC(=O)Cc5ccc(F)cc5)cc4F)c3s2)c1` [drawing 440], the IC50 was less than 1000 nM.

As to `CCn1cnc(-c2cc3nccc(Oc4ccc(NC(=S)NC(=O)Cc5ccccc5C)cc4F)c3s2)c1` [drawing 441], the IC50 is less than 1000 nM.
